Data reported in US20180256673A1, “METHODS FOR TREATING FUNGAL INFECTIONS” (priority 2015, published 2018).
Values after ≈ are worked out from the molar mass of the structure shown. Where two headings read alike, the source gives them in different places.

Assays:
Assay in all cases: Susceptibility testing of VVC clinical isolates at pH 7 and 4 (CLSI M27-A3)
[1] = test system: C. glabrata vaginal isolates; assay type: cell-based, Candida glabrata; conditions: for Number of isolates at MIC 0.03 μg/mL / Number of isolates at MIC 0.06 μg/mL / Number of isolates at MIC 0.25 μg/mL / Number of isolates at MIC 0.5 μg/mL / Number of isolates at MIC 1 μg/mL / Number of isolates at MIC 2 μg/mL / Number of isolates at MIC 0.125 μg/mL / Number of isolates at MIC 4 μg/mL / Number of isolates at MIC ≥4 μg/mL: 21 VVC isolates; for MIC90: Nakaseomyces glabratus, 21 isolates, read-out: MIC90
[2] = test system: C. tropicalis vaginal isolates; assay type: cell-based; conditions: Candida tropicalis, 13 isolates, read-out: MIC90
[3] = test system: C. parapsilosis vaginal isolates; assay type: cell-based, Candida parapsilosis; conditions: 14 isolates, read-out: MIC90
[4] = test system: C. albicans vaginal isolates; assay type: cell-based, Candida albicans; conditions: for MIC / MIC90: Candida albicans; for MIC: read-out: MIC; for MIC90: 60 isolates, read-out: MIC90

CCC(C)n1ncn(-c2ccc(N3CCN(c4ccc(OCC5COC(Cn6cncn6)(c6ccc(Cl)cc6Cl)O5)cc4)CC3)cc2)c1=O (centres unmarked) [ITR, itraconazole]
Number of isolates at MIC 0.03 μg/mL ([1]; 24 h, pH 4): 1 | Number of isolates at MIC 0.06 μg/mL ([1]; 24 h, pH 4): 2 | Number of isolates at MIC 0.25 μg/mL ([1]; 24 h, pH 4): 2 | Number of isolates at MIC 0.5 μg/mL ([1]; 24 h, pH 4): 9 | Number of isolates at MIC 1 μg/mL ([1]; 24 h, pH 4): 6 | Number of isolates at MIC 2 μg/mL ([1]; 24 h, pH 4): 1 | Number of isolates at MIC 0.03 μg/mL ([1]; 24 h, pH 7): 4 | Number of isolates at MIC 0.06 μg/mL ([1]; 24 h, pH 7): 2 | Number of isolates at MIC 0.125 μg/mL ([1]; 24 h, pH 7): 6 | Number of isolates at MIC 0.25 μg/mL ([1]; 24 h, pH 7): 3 | Number of isolates at MIC 0.5 μg/mL ([1]; 24 h, pH 7): 3 | Number of isolates at MIC 1 μg/mL ([1]; 24 h, pH 7): 2 | Number of isolates at MIC 4 μg/mL ([1]; 24 h, pH 7): 1 | Number of isolates at MIC 0.03 μg/mL ([1]; 48 h, pH 4): 1 | Number of isolates at MIC 0.06 μg/mL ([1]; 48 h, pH 4): 1 | Number of isolates at MIC 0.125 μg/mL ([1]; 48 h, pH 4): 1 | Number of isolates at MIC 0.5 μg/mL ([1]; 48 h, pH 4): 2 | Number of isolates at MIC 1 μg/mL ([1]; 48 h, pH 4): 4 | Number of isolates at MIC 2 μg/mL ([1]; 48 h, pH 4): 2 | Number of isolates at MIC 4 μg/mL ([1]; 48 h, pH 4): 2 | Number of isolates at MIC ≥4 μg/mL ([1]; 48 h, pH 4): 8 | Number of isolates at MIC 0.03 μg/mL ([1]; 48 h, pH 7): 1 | Number of isolates at MIC 0.06 μg/mL ([1]; 48 h, pH 7): 1 | Number of isolates at MIC 0.125 μg/mL ([1]; 48 h, pH 7): 1 | Number of isolates at MIC 0.25 μg/mL ([1]; 48 h, pH 7): 5 | Number of isolates at MIC 0.5 μg/mL ([1]; 48 h, pH 7): 8 | Number of isolates at MIC 2 μg/mL ([1]; 48 h, pH 7): 2 | Number of isolates at MIC ≥4 μg/mL ([1]; 48 h, pH 7): 3 | MIC90 ([1]; pH 4, 24 h): 1 µg/mL (≈ 1.42 µM) | MIC90 ([1]; pH 4, 48 h): > 4 µg/mL | MIC90 ([1]; pH 7, 24 h): 1 µg/mL (≈ 1.42 µM) | MIC90 ([1]; pH 7, 48 h): > 4 µg/mL | MIC90 ([2]; pH 4, 24 h): 0.125 µg/mL (≈ 0.177 µM) | MIC90 ([2]; pH 4, 48 h): 0.5 µg/mL (≈ 0.709 µM) | MIC90 ([2]; pH 7, 24 h): 0.125 µg/mL (≈ 0.177 µM) | MIC90 ([2]; pH 7, 48 h): 0.5 µg/mL (≈ 0.709 µM) | MIC90 ([3]; pH 4, 24 h): 0.016 µg/mL (≈ 0.0227 µM) | MIC90 ([3]; pH 4, 48 h): 0.125 µg/mL (≈ 0.177 µM) | MIC90 ([3]; pH 7, 24 h): 0.03 µg/mL (≈ 0.0425 µM) | MIC90 ([3]; pH 7, 48 h): 0.125 µg/mL (≈ 0.177 µM) | Number of isolates at MIC 0.008 μg/mL ([4]; 60 VVC isolates, 24 h, pH 4): 8 | Number of isolates at MIC 0.03 μg/mL ([4]; 60 VVC isolates, 24 h, pH 4): 13 | Number of isolates at MIC 0.06 μg/mL ([4]; 60 VVC isolates, 24 h, pH 4): 8 | Number of isolates at MIC 0.125 μg/mL ([4]; 60 VVC isolates, 24 h, pH 4): 2 | Number of isolates at MIC 0.25 μg/mL ([4]; 60 VVC isolates, 24 h, pH 4): 2 | Number of isolates at MIC 0.5 μg/mL ([4]; 60 VVC isolates, 24 h, pH 4): 2 | Number of isolates at MIC 2 μg/mL ([4]; 60 VVC isolates, 24 h, pH 4): 1 | Number of isolates at MIC […] ([4]; 60 VVC isolates, 24 h, pH 4): 24 | Number of isolates at MIC 0.008 μg/mL ([4]; 60 VVC isolates, 24 h, pH 7): 21 | Number of isolates at MIC 0.03 μg/mL ([4]; 60 VVC isolates, 24 h, pH 7): 9 | Number of isolates at MIC 0.06 μg/mL ([4]; 60 VVC isolates, 24 h, pH 7): 3 | Number of isolates at MIC 0.25 μg/mL ([4]; 60 VVC isolates, 24 h, pH 7): 2 | Number of isolates at MIC 0.5 μg/mL ([4]; 60 VVC isolates, 24 h, pH 7): 2 | Number of isolates at MIC 2 μg/mL ([4]; 60 VVC isolates, 24 h, pH 7): 1 | Number of isolates at MIC […] ([4]; 60 VVC isolates, 24 h, pH 7): 20 | Number of isolates at MIC 0.03 μg/mL ([4]; 60 VVC isolates, 48 h, pH 4): 23 | Number of isolates at MIC 0.06 μg/mL ([4]; 60 VVC isolates, 48 h, pH 4): 10 | Number of isolates at MIC 0.125 μg/mL ([4]; 60 VVC isolates, 48 h, pH 4): 6 | Number of isolates at MIC 0.25 μg/mL ([4]; 60 VVC isolates, 48 h, pH 4): 3 | Number of isolates at MIC 0.5 μg/mL ([4]; 60 VVC isolates, 48 h, pH 4): 3 | Number of isolates at MIC 1 μg/mL ([4]; 60 VVC isolates, 48 h, pH 4): 1 | Number of isolates at MIC […] ([4]; 60 VVC isolates, 48 h, pH 4): 10 | Number of isolates at MIC ≥4 μg/mL ([4]; 60 VVC isolates, 48 h, pH 4): 4 | Number of isolates at MIC 0.008 μg/mL ([4]; 60 VVC isolates, 48 h, pH 7): 6 | Number of isolates at MIC 0.03 μg/mL ([4]; 60 VVC isolates, 48 h, pH 7): 8 | Number of isolates at MIC 0.125 μg/mL ([4]; 60 VVC isolates, 48 h, pH 7): 6 | Number of isolates at MIC 0.25 μg/mL ([4]; 60 VVC isolates, 48 h, pH 7): 2 | Number of isolates at MIC 0.5 μg/mL ([4]; 60 VVC isolates, 48 h, pH 7): 2 | Number of isolates at MIC 2 μg/mL ([4]; 60 VVC isolates, 48 h, pH 7): 1 | Number of isolates at MIC […] ([4]; 60 VVC isolates, 48 h, pH 7): 34 | Number of isolates at MIC ≥4 μg/mL ([4]; 60 VVC isolates, 48 h, pH 7): 1 | MIC ([4]; 48 h, pH 4, fluconazole-resistant isolate 1, pH 4, 48 h): 0.125 µg/mL (≈ 0.177 µM) | MIC ([4]; 48 h, pH 4, fluconazole-resistant isolate 2, pH 4, 48 h): 0.25 µg/mL (≈ 0.354 µM) | MIC ([4]; 48 h, pH 4, fluconazole-resistant isolate 3, pH 4, 48 h): 0.5 µg/mL (≈ 0.709 µM) | MIC ([4]; 48 h, pH 4, fluconazole-resistant isolate 4, pH 4, 48 h): 0.125 µg/mL (≈ 0.177 µM) | MIC ([4]; 48 h, pH 4, fluconazole-resistant isolate 5, pH 4, 48 h): > 4 µg/mL | MIC ([4]; 48 h, pH 4, fluconazole-resistant isolate 6, pH 4, 48 h): > 4 µg/mL | MIC ([4]; 48 h, pH 4, fluconazole-resistant isolate 7, pH 4, 48 h): 0.5 µg/mL (≈ 0.709 µM) | MIC ([4]; 48 h, pH 4, fluconazole-resistant isolate 8, pH 4, 48 h): > 4 µg/mL | MIC ([4]; 48 h, pH 4, fluconazole-resistant isolate 9, pH 4, 48 h): > 4 µg/mL | MIC ([4]; 48 h, pH 4, fluconazole-resistant isolate 10, pH 4, 48 h): 0.25 µg/mL (≈ 0.354 µM) | MIC ([4]; 48 h, pH 7, fluconazole-resistant isolate 1, pH 7, 48 h): 0.125 µg/mL (≈ 0.177 µM) | MIC ([4]; 48 h, pH 7, fluconazole-resistant isolate 2, pH 7, 48 h): 0.25 µg/mL (≈ 0.354 µM) | MIC ([4]; 48 h, pH 7, fluconazole-resistant isolate 3, pH 7, 48 h): 0.5 µg/mL (≈ 0.709 µM) | MIC ([4]; 48 h, pH 7, fluconazole-resistant isolate 4, pH 7, 48 h): 0.03 µg/mL (≈ 0.0425 µM) | MIC ([4]; 48 h, pH 7, fluconazole-resistant isolate 5, pH 7, 48 h): 0.25 µg/mL (≈ 0.354 µM) | MIC ([4]; 48 h, pH 7, fluconazole-resistant isolate 6, pH 7, 48 h): 0.016 µg/mL (≈ 0.0227 µM) | MIC ([4]; 48 h, pH 7, fluconazole-resistant isolate 7, pH 7, 48 h): 0.5 µg/mL (≈ 0.709 µM) | MIC ([4]; 48 h, pH 7, fluconazole-resistant isolate 8, pH 7, 48 h): 2 µg/mL (≈ 2.83 µM) | MIC ([4]; 48 h, pH 7, fluconazole-resistant isolate 9, pH 7, 48 h): > 4 µg/mL | MIC ([4]; 48 h, pH 7, fluconazole-resistant isolate 10, pH 7, 48 h): 0.125 µg/mL (≈ 0.177 µM) | MIC90 ([4]; pH 4, 24 h): 0.125 µg/mL (≈ 0.177 µM) | MIC90 ([4]; pH 4, 48 h): 5 µg/mL (≈ 7.09 µM) | MIC90 ([4]; pH 7, 24 h): 0.06 µg/mL (≈ 0.085 µM) | MIC90 ([4]; pH 7, 48 h): 0.125 µg/mL (≈ 0.177 µM)
